From a melting point compilation (Tetko et al.; mined from patent text by program, amines drawn as free bases though some values may be those of a salt)

For `CCOC(=O)C1Cc2c([nH]c3ccccc23)CN1C(=S)SCc1cccs1` (stereo not drawn), the melting point was 205 to 207 °C. `O=C1OC(c2ccccc2)(c2ccc(-c3ccccc3)cc2)C(O)=C1OCc1ccccc1` (stereo not drawn) showed a melting point of 190 to 195 °C. In the case of `CCn1nc(-c2ccc(F)cc2)c(-c2ccncc2)c1C(=O)N(C)Cc1ccccn1`, the melting point is reported as 144 to 147 °C. In the case of `Cc1nnc(Cc2ccc(NC(=O)/C=C/c3cnn(C)c3-c3ccc(F)cc3)cc2)o1`, the melting point is reported as 151 to 152 °C. `C=CCON=C(CC)C1=C(OCc2ccccc2)CC(C)(C)CC1=O` gave a melting point of 60.5 to 61.5 °C. With `C/C=C/c1cc(OC)c2oc(-c3ccc(O)c(OC)c3)c(CO)c2c1` the melting point was 175 to 179 °C. `O=C(O)c1cccc(-c2ccc(F)c3cc(Cc4cccc(C(F)(F)F)c4)oc23)c1` showed a melting point of 172 to 173 °C. Work on `CCOC(=O)CC[C@H](NC(=O)c1ccc(NCCCc2c(N(C(C)=O)C(C)=O)nc(NC(C)=O)[nH]c2=O)c(OC)c1)C(=O)OCC` yielded a melting point of 73 to 84 °C. Work on `COc1ccc2[nH]nc(N3CCN(CCCn4c(=O)[nH]c5ccccc54)CC3)c2c1` yielded a melting point of 195 to 197 °C. Work on `CCCCNS(=O)(=O)CC(O)C(O)C(CC1CCCCC1)NC(=O)[C@H](CC(C)C)NC(=O)C(Cc1ccccc1)CS(=O)(=O)C(C)(C)C` (stereo partly drawn) yielded a melting point of 87 to 101 °C. With `COc1ccc(-c2nn(CC=Cc3ccccc3)c(=O)cc2-c2ccccc2)cc1` the melting point was 136 to 137 °C. In the case of `O=C(O)C1Oc2cc3onc(-c4ccccc4)c3cc2O1` (stereo not drawn), the melting point is reported as 202 to 204 °C. Compound `Cc1nn(-c2ccc(Cl)cc2Cl)c(=O)n(C)c1=O` has a melting point of 109 to 110 °C. Work on `C#CCCCCCCCCCCCCCCCCCCCCO` yielded a melting point of 64 to 70 °C. Work on `CC(C)N1CCC(Nc2nc3cncnc3n2Cc2ccc(F)cc2)CC1` yielded a melting point of 186 °C. For `CC(C)(S)CNC(=O)/C(CCO)=C(\c1ccc(Cl)cc1)c1ccc(S(C)(=O)=O)cc1`, the melting point was 62 to 64 °C. Work on `COc1cc(C=CC(=O)Cc2ccccc2)ccc1O` yielded a melting point of 85 to 87 °C. Work on `O=c1nc(-c2ccccc2)c2cc([N+](=O)[O-])ccc2n1CC1CCCO1` (stereo not drawn) yielded a melting point of 150 to 152 °C. With `COC(=O)/C(=N/NC(N)=O)c1ccc(OCCOc2ccc3ccccc3c2)cc1` the melting point was 132 to 134 °C. `CC(OCc1ccc(Cl)c2ccccc12)(C(=O)O)C(F)(F)F` (stereo not drawn) showed a melting point of 120 to 121 °C. `CC(=O)N1N=C(c2ccc(N)c(C)c2)c2cc3c(cc2C[C@H]1C)OCO3` showed a melting point of 123 to 130 °C. For `COc1ccc(-n2c(CC(=O)O)c(C(=O)O)c3cc(Oc4ccc(OC(C)C)cc4)ccc32)cc1`, the melting point was 226 °C. Compound `C#Cc1c(C#N)nn(-c2c(Cl)cc(C(F)(F)F)cc2Cl)c1Br` has a melting point of 134 to 135 °C. `CCC(CC)Oc1cc(C)nc(Nc2c(C)cc(C)cc2C)c1` gave a melting point of 98 to 100 °C. Compound `O=C(OCc1ccccc1)N1CCSC1=S` has a melting point of 72 °C. With `CCOC(=O)c1cc2n(c1)CNc1ccccc1-2` the melting point was 140 to 141 °C. `CCCc1nc2c(N)nc3cc(OCCOCCCl)ccc3c2s1` showed a melting point of 101 to 103 °C. In the case of `O=C1CCCC2=C1C(c1ccc(Cl)cc1)C1=C(CCCC1)N2` (stereo not drawn), the melting point is reported as 253 to 254 °C. With `Clc1ccc2c(c1)Nc1cc(Cl)ccc1OCO2` the melting point was 194 to 196 °C. Work on `CN(C)Cc1ccc(-c2cc3onc(-c4ccccc4)c3c(=O)n2C)cc1` yielded a melting point of 159 to 161 °C. `COCCn1nnnc1-c1cc(-c2cc(C(F)(F)F)ccc2F)c(O)cc1O` gave a melting point of 90 to 94 °C. `COc1ccc(C(=O)N2CCN(CC(=O)N3CC=C(c4cccc(C(F)(F)F)c4)n4ncc(C#N)c43)CC2)cc1` gave a melting point of 151 to 153 °C. With `Cc1cc(C)c(Nc2nc(C)ncc2S(=O)(=O)c2ccc(-c3ncccn3)cc2)c(C)c1` the melting point was 215 to 217 °C. Compound `O=C(Nc1cn[nH]c1-c1ccc(F)cc1)c1c(F)cccc1F` has a melting point of 112 °C. Work on `CC(C(=O)N(C)C)n1cc(Cl)c(-c2c(Cl)cccc2Cl)n1` (stereo not drawn) yielded a melting point of 126 to 128 °C. Work on `CN(C)S(=O)(=O)c1cc(-c2csc(=Nc3ccc(O)cc3)n2C)ccc1Cl` yielded a melting point of 188 to 190 °C. With `CCOC(=O)COc1c(C)cc(C)c2c1CCC2=O` the melting point was 75 to 77 °C. Work on `COC(=O)C1=C(C)NC(C)=C(C(=O)OC)C1c1cc([N+](=O)[O-])ccc1OCCCCNCC(O)COc1ccccc1` (stereo not drawn) yielded a melting point of 131 to 133 °C.
